Reference: patent US11547663B2, “Unit aerosol doses for anticoagulation” (InCarda Therapeutics, Inc., priority 2015, dated 2023)
Where two headings read alike, the source gives them in different places.

Columns and labels:
intrinsic pathway = experiment: Activated clotting time (ACT) in dog blood after IV or IT anticoagulant; format: in vivo; conditions: for ACT LA: Left Atrium
Description: To assess the efficacy of anticoagulants delivered via intratracheal (IT) inhalation, four different anticoagulants were tested in a dog study. PK as well as biomarkers of blood in the Left Atrium (LA) and Coronary Sinus (CS) were monitored. These locations were chosen as these are the sites whereby clot formation occurs that leads to Myocardial Infarction or results in stroke. These drugs and doses were selected to represent a wide spectrum of anticoagulant classes. One anticoagulant was tested in one dog on each arm of this study. Activated clotting time (ACT), measures the time in seconds needed for whole blood to clot upon exposure to an activator of an intrinsic pathway by the addition of such as factor XII activators. Measurements were performed in the blood collected from Left Atrium (LA) and in the Coronary sinus (CS)—the targets for stroke prevention and Myocardial Infarction (MI), respectively.

extrinsic system = experiment: Prothrombin Time (PT) in dog blood after IV or IT anticoagulant; format: in vivo; conditions: for PTCS: Coronary Sinus; for PT LA: Left Atrium
Description: (§1) To assess the efficacy of anticoagulants delivered via intratracheal (IT) inhalation, four different anticoagulants were tested in a dog study.
(§2) PK as well as biomarkers of blood in the Left Atrium (LA) and Coronary Sinus (CS) were monitored. These locations were chosen as these are the sites whereby clot formation occurs that leads to Myocardial Infarction or results in stroke.
(§3) These drugs and doses were selected to represent a wide spectrum of anticoagulant classes. One anticoagulant was tested in one dog on each arm of this study.
(§4) Factor Xa inhibition; Prothrombin Time (PT): measures the integrity of the extrinsic system as well as factors common to both systems; and Activated Partial Thromboplastin Time (aPTT or PTT): measures the integrity of the intrinsic system and the common components and factor-Xa inhibition.
(§5) Measurements were performed in the blood collected from Left Atrium (LA) and in the Coronary sinus (CS)—the targets for stroke prevention and Myocardial Infarction (MI), respectively.

intrinsic system = experiment: Activated Partial Thromboplastin Time (aPTT or PTT) in dog blood after IV or IT anticoagulant; format: in vivo; conditions: for PTTCS: Coronary Sinus; for PTT LA: Left Atrium
Description: as §1, §2, §3, §4, §5

[1] = Dog study summary: effect of inhaled anticoagulant on tested biomarkers; format: in vivo; conditions: inhaled (IT)
Description: as §1, §2, §3
The standard laboratory tests commonly used to evaluate the efficacy of anticoagulants are the following:
The first test, ACT, was the key in the management of ACS. The latter three tests provided information regarding the prevention of clot formation and growth of an existing clot. The table below summarizes the measurements performed for each anticoagulant in the study.

[2] = cited from earlier work
[3] = IT Bivalirudin 2 mg/kg, 0 min (baseline)
[4] = IT Bivalirudin 8 mg/kg, 0 min (baseline)
[5] = IV Bivalirudin 2 mg/kg, 0 min (baseline)

For Bivalirudin, the “effect on ACT” value (intrinsic pathway; IT (inhaled)) was “NO effect”, the “effect on ACT” value (intrinsic pathway; IT (inhaled), listed as bivalirudin) was “no prolongation” and the “ACT LA” value (intrinsic pathway; [3]) was 90 s. For the same substance, the “ACT LA” value (intrinsic pathway; IT Bivalirudin 2 mg/kg, 1 min) was 95 s, the “ACT LA” value (intrinsic pathway; IT Bivalirudin 2 mg/kg, 3 min) was 95 s and the “ACT LA” value (intrinsic pathway; IT Bivalirudin 2 mg/kg, 5 min) was 101 s. For the same substance, the “ACT LA” value (intrinsic pathway; IT Bivalirudin 2 mg/kg, 10 min) was 101 s, the “ACT LA” value (intrinsic pathway; IT Bivalirudin 2 mg/kg, 15 min) was 95 s and the “ACT LA” value (intrinsic pathway; IT Bivalirudin 2 mg/kg, 30 min) was 95 s. For the same substance, the “ACT LA” value (intrinsic pathway; IT Bivalirudin 2 mg/kg, 60 min) was 95 s, the “ACT LA” value (intrinsic pathway; [4]) was 78 s and the “ACT LA” value (intrinsic pathway; IT Bivalirudin 8 mg/kg, 1 min) was 95 s. The “ACT LA” value (intrinsic pathway; IT Bivalirudin 8 mg/kg, 3 min) was 89 s, the “ACT LA” value (intrinsic pathway; IT Bivalirudin 8 mg/kg, 5 min) was 90 s and the “ACT LA” value (intrinsic pathway; IT Bivalirudin 8 mg/kg, 10 min) was 89 s. For the same substance, the “ACT LA” value (intrinsic pathway; IT Bivalirudin 8 mg/kg, 15 min) was 90 s, the “ACT LA” value (intrinsic pathway; IT Bivalirudin 8 mg/kg, 30 min) was 90 s and the “ACT LA” value (intrinsic pathway; IT Bivalirudin 8 mg/kg, 60 min) was 89 s. The “effect on ACT” value (intrinsic pathway; IV) was “prolonged”, the “ACT LA” value (intrinsic pathway; [5]) was 106 s and the “ACT LA” value (intrinsic pathway; IV Bivalirudin 2 mg/kg, 1 min) was 242 s. The “ACT LA” value (intrinsic pathway; IV Bivalirudin 2 mg/kg, 3 min) was 214 s, the “ACT LA” value (intrinsic pathway; IV Bivalirudin 2 mg/kg, 5 min) was 203 s and the “ACT LA” value (intrinsic pathway; IV Bivalirudin 2 mg/kg, 10 min) was 174 s. For the same substance, the “ACT LA” value (intrinsic pathway; IV Bivalirudin 2 mg/kg, 15 min) was 168 s, the “ACT LA” value (intrinsic pathway; IV Bivalirudin 2 mg/kg, 30 min) was 135 s and the “ACT LA” value (intrinsic pathway; IV Bivalirudin 2 mg/kg, 60 min) was 106 s. The “effect on PT” value (extrinsic system; IT (inhaled)) was “NO effect”, the “PTCS” value (extrinsic system; [3]) was 6.75 s and the “PTCS” value (extrinsic system; IT Bivalirudin 2 mg/kg, 3 min) was 5.45 s. For the same substance, the “PTCS” value (extrinsic system; IT Bivalirudin 2 mg/kg, 15 min) was 9.3 s, the “PTCS” value (extrinsic system; IT Bivalirudin 2 mg/kg, 60 min) was 6.3 s and the “PT LA” value (extrinsic system; [3]) was 6.1 s. The “PT LA” value (extrinsic system; IT Bivalirudin 2 mg/kg, 1 min) was 6 s, the “PT LA” value (extrinsic system; IT Bivalirudin 2 mg/kg, 3 min) was 5.4 s and the “PT LA” value (extrinsic system; IT Bivalirudin 2 mg/kg, 5 min) was 5.8 s. For the same substance, the “PT LA” value (extrinsic system; IT Bivalirudin 2 mg/kg, 10 min) was 6.2 s, the “PT LA” value (extrinsic system; IT Bivalirudin 2 mg/kg, 15 min) was 5.7 s and the “PT LA” value (extrinsic system; IT Bivalirudin 2 mg/kg, 30 min) was 5.8 s. The “PT LA” value (extrinsic system; IT Bivalirudin 2 mg/kg, 60 min) was 7.2 s, the “PTCS” value (extrinsic system; [4]) was 6.5 s and the “PTCS” value (extrinsic system; IT Bivalirudin 8 mg/kg, 3 min) was 5.5 s. The “PTCS” value (extrinsic system; IT Bivalirudin 8 mg/kg, 15 min) was 7 s, the “PTCS” value (extrinsic system; IT Bivalirudin 8 mg/kg, 60 min) was 5.5 s and the “PT LA” value (extrinsic system; [4]) was 6.4 s. The “PT LA” value (extrinsic system; IT Bivalirudin 8 mg/kg, 1 min) was 6.1 s, the “PT LA” value (extrinsic system; IT Bivalirudin 8 mg/kg, 3 min) was 6.9 s and the “PT LA” value (extrinsic system; IT Bivalirudin 8 mg/kg, 5 min) was 6.3 s. The “PT LA” value (extrinsic system; IT Bivalirudin 8 mg/kg, 10 min) was 7 s, the “PT LA” value (extrinsic system; IT Bivalirudin 8 mg/kg, 15 min) was 6.7 s and the “PT LA” value (extrinsic system; IT Bivalirudin 8 mg/kg, 30 min) was 6.6 s. The “PT LA” value (extrinsic system; IT Bivalirudin 8 mg/kg, 60 min) was 5.9 s, the “effect on PT” value (extrinsic system; IV) was “prolonged” and the “PTCS” value (extrinsic system; [5]) was 5.8 s. The “PTCS” value (extrinsic system; IV Bivalirudin 2 mg/kg, 3 min) was 25 s, the “PTCS” value (extrinsic system; IV Bivalirudin 2 mg/kg, 15 min) was 17.2 s and the “PTCS” value (extrinsic system; IV Bivalirudin 2 mg/kg, 60 min) was 6 s. For the same substance, the “PT LA” value (extrinsic system; [5]) was 5.8 s, the “PT LA” value (extrinsic system; IV Bivalirudin 2 mg/kg, 1 min) was 34.6 s and the “PT LA” value (extrinsic system; IV Bivalirudin 2 mg/kg, 3 min) was 28.8 s. For the same substance, the “PT LA” value (extrinsic system; IV Bivalirudin 2 mg/kg, 5 min) was 20.8 s, the “PT LA” value (extrinsic system; IV Bivalirudin 2 mg/kg, 10 min) was 17.4 s and the “PT LA” value (extrinsic system; IV Bivalirudin 2 mg/kg, 15 min) was 12.1 s. The “PT LA” value (extrinsic system; IV Bivalirudin 2 mg/kg, 30 min) was 7.6 s, the “PT LA” value (extrinsic system; IV Bivalirudin 2 mg/kg, 60 min) was 6.4 s and the “effect on aPTT” value (intrinsic system; IT (inhaled)) was “NO effect”. For the same substance, the “PTTCS” value (intrinsic system; [3]) was 8.4 s, the “PTTCS” value (intrinsic system; IT Bivalirudin 2 mg/kg, 3 min) was 120 s and the “PTTCS” value (intrinsic system; IT Bivalirudin 2 mg/kg, 15 min) was 120 s. For the same substance, the “PTTCS” value (intrinsic system; IT Bivalirudin 2 mg/kg, 60 min) was 10.7 s, the “PTT LA” value (intrinsic system; [3]) was 8.4 s and the “PTT LA” value (intrinsic system; IT Bivalirudin 2 mg/kg, 1 min) was 8.3 s. For the same substance, the “PTT LA” value (intrinsic system; IT Bivalirudin 2 mg/kg, 3 min) was 9.1 s, the “PTT LA” value (intrinsic system; IT Bivalirudin 2 mg/kg, 5 min) was 8.8 s and the “PTT LA” value (intrinsic system; IT Bivalirudin 2 mg/kg, 10 min) was 11.5 s. For the same substance, the “PTT LA” value (intrinsic system; IT Bivalirudin 2 mg/kg, 15 min) was 9.4 s, the “PTT LA” value (intrinsic system; IT Bivalirudin 2 mg/kg, 30 min) was 8.2 s and the “PTT LA” value (intrinsic system; IT Bivalirudin 2 mg/kg, 60 min) was 11.9 s. For the same substance, the “PTTCS” value (intrinsic system; [4]) was 12.5 s, the “PTTCS” value (intrinsic system; IT Bivalirudin 8 mg/kg, 3 min) was 8.1 s and the “PTTCS” value (intrinsic system; IT Bivalirudin 8 mg/kg, 15 min) was 120 s. For the same substance, the “PTTCS” value (intrinsic system; IT Bivalirudin 8 mg/kg, 60 min) was 21.3 s, the “PTT LA” value (intrinsic system; [4]) was 10.3 s and the “PTT LA” value (intrinsic system; IT Bivalirudin 8 mg/kg, 1 min) was 8.4 s. For the same substance, the “PTT LA” value (intrinsic system; IT Bivalirudin 8 mg/kg, 3 min) was 11.9 s, the “PTT LA” value (intrinsic system; IT Bivalirudin 8 mg/kg, 5 min) was 11.3 s and the “PTT LA” value (intrinsic system; IT Bivalirudin 8 mg/kg, 10 min) was 9.5 s. The “PTT LA” value (intrinsic system; IT Bivalirudin 8 mg/kg, 15 min) was 9.6 s, the “PTT LA” value (intrinsic system; IT Bivalirudin 8 mg/kg, 30 min) was 9.9 s and the “PTT LA” value (intrinsic system; IT Bivalirudin 8 mg/kg, 60 min) was 13 s. For the same substance, the “effect on aPTT” value (intrinsic system; IV) was “prolonged”, the “PTTCS” value (intrinsic system; [5]) was 10.6 s and the “PTTCS” value (intrinsic system; IV Bivalirudin 2 mg/kg, 3 min) was 35.1 s. The “PTTCS” value (intrinsic system; IV Bivalirudin 2 mg/kg, 15 min) was 120 s, the “PTTCS” value (intrinsic system; IV Bivalirudin 2 mg/kg, 60 min) was 120 s and the “PTT LA” value (intrinsic system; [5]) was 9.7 s. For the same substance, the “PTT LA” value (intrinsic system; IV Bivalirudin 2 mg/kg, 1 min) was 42.4 s, the “PTT LA” value (intrinsic system; IV Bivalirudin 2 mg/kg, 3 min) was 36 s and the “PTT LA” value (intrinsic system; IV Bivalirudin 2 mg/kg, 5 min) was 26.3 s. For the same substance, the “PTT LA” value (intrinsic system; IV Bivalirudin 2 mg/kg, 10 min) was 23.8 s, the “PTT LA” value (intrinsic system; IV Bivalirudin 2 mg/kg, 15 min) was 19.1 s and the “PTT LA” value (intrinsic system; IV Bivalirudin 2 mg/kg, 30 min) was 15.7 s. For the same substance, the “PTT LA” value (intrinsic system; IV Bivalirudin 2 mg/kg, 60 min) was 11 s, the “effect of inhaled drug on tested biomarkers (summary)” value [1] was “showed NO” and the half-life ([2]; as stated in b199) was 1 to 2 h. For the same substance, the half-life ([2]; as stated in b211) was 2 to 4 h.
